Reference: article PMC11020070, “Discovery of Protease-Activated Receptor 4 (PAR4)-Tethered Ligand Antagonists Using Ultralarge Virtual Screening” (ACS Pharmacology & Translational Science, 2024)

What was measured:
[1] = Buffer-only incubation (KPI or Tyrode's HP buffer), compound stability; type: physicochemical; conditions: potassium phosphate (KPI) or Tyrode's buffer (HP), no microsomes
Source text: (§1) Mammalian liver microsomes include CYPs, flavin monooxygenases (FMOs), glucuronosyltransferases ([…]), and esterases as part of their enzyme composition. In the presence of NADPH, which serves as a cofactor for CYP- and FMO-dependent reactions, the observed activity can be attributed to these enzymes. Similarly, UGTs require the cofactor uridine diphosphate glucuronic acid (UDPGA). Therefore, when NADPH and UDPGA are absent, any reduction in the compound can be ascribed only to esterase activity or chemical instability. […] This is based on two factors: (1) the stability of the compounds in HP buffer, which is used in the platelet assays, and (2) the low probability of drug metabolism occurring within the platelets themselves. Together, these minimize the chance that any metabolites with distinct PAR4 potencies could confound the results. By comparing the area under the curve of the compound metabolized from the microsomal incubations in the presence or absence of NADPH to the corresponding area under the curve of the buffer-only incubation, the percent contribution of CYPs and FMOs and esterases were estimated (Table S1). The major contributing enzyme toward the metabolism of 12 is esterases in both the human (96%) and mouse (98%). In contrast, the metabolism of 31 was primarily driven by CYPs and FMOs in both HLM (80%) and MLM (88%).
Supplem ental Fig ure S5 . Depletion of 12 over time in the presence (ν) or absence (λ) of NADPH. Incubations w e re carried out in the presence of human (A) or mouse (B) li ver microsomes or without microsomes but in either KPI (C) or HP (D) buffer. […] Error bars smaller than the symbols a re not visible. […]
Supplem ental Figure S6. […] Values a re expressed as percentage of compound remaining at ea ch time compared with time 0 min and represent the mean ± SD (n = 3). […]
Supplem ental Fig ure S7 . […] Values a re expressed as percentage of compound remaining at ea ch time co mpa red with time 0 min and represent the mean ± SD (n = 3). […]

[2] = Modified microsomal clearance assay with or without NADPH, human liver microsomes; type: in vitro ADME; conditions: for Estimated % Contribution to Metabolism Human CYPs/FMOs / Estimated % Contribution to Metabolism Human Esterases: HLM, from AUC with/without NADPH vs buffer only; for CLint scaled at 1 µM: human, liver microsomes, pH 7.4, HLM, reaction initiated by test compound
Protocol: It is of note that the experimental design for the initial round of microsomal clearance assays adds a test compound to microsomes before the reaction is started by the addition of nicotinamide adenine dinucleotide phosphate (NADPH). This design assumes that the major contributing drug-metabolizing enzymes are cytochrome P450s (CYPs). To investigate this further, the experimental design was modified where the reaction was initiated by the addition of a test compound and was carried out in the presence or absence of NADPH. […] By comparison of the measured intrinsic clearance in the presence and absence of NADPH, the contribution of non-CYP450 drug-metabolizing enzymes can be estimated.
as §1
In separate 96-well plates for each time point, a mixture of 0.1 M potassium phosphate-buffered (pH 7.4), 3 mM MgCl2, and 2.5 mg/mL microsomes were prewarmed at 37 °C for 5 min. Following the preincubation, a 1 μM test compound and 1 mM NADPH (for 3, 7, 15, 25, or 45 min time points) or buffer (for 0 min time point) were added to initiate the reaction. Under standard conditions, reactions were initiated with the addition of NADPH. To delineate the contribution of esterases, some experiments were initiated by the addition of substrate in the presence or absence of NADPH. Plates were incubated at 37 °C under ambient oxygenation. At the respective times, each plate’s reaction was precipitated by the addition of 2 volumes of ice-cold acetonitrile containing an internal standard (carbamazepine, 50 nM). The plates were centrifuged at 4000 rcf (4 °C) for 5 min. The resulting supernatants were transferred and diluted 1:1 (supernatant:water) into new 96-well plates in preparation for LC/MS/MS analysis. Each compound was assayed in triplicate within the same 96-well plate. The in vitro half-life (t1/2, min, eq 1), intrinsic clearance (CLint, mL/min/kg, eq 2), and subsequent predicted hepatic clearance (CLhep, mL/min/kg, eq 3) were determined employing the following equations [drawing 1] 1 [drawing 2] 2 [drawing 3] 3 The estimated percent contribution to metabolism was calculated from the percent substrate lost plots generated from metabolic incubations initiated with the addition of a test compound. Calculations compared the area under the curve (AUC) from conditions in the presence and absence of NADPH and buffer-only (control) conditions (eqs 4 and 5). AUC was calculated by using the trapezoidal method [drawing 4] 4 [drawing 5] 5
Clint (mL/min/kg) Estimated % Contribution to Metabolism
Compound Human Mouse Human Mouse +NADPH -NADPH +NADPH -NADPH CYPs/FMOs Esterases CYPs/FMOs Esterases […]

## O=C(Nc1n[nH]c(-c2ccc(F)cc2F)n1)c1nn(-c2ccccc2)c2c1CCCC2 [Compound 31]
[1]
  loss of compound over time in buffer only: little loss of compound over time
[2]
  Estimated % Contribution to Metabolism Human CYPs/FMOs: 80%
  Estimated % Contribution to Metabolism Human Esterases: 20%
[2]; +NADPH
  CLint scaled at 1 µM: 144 mL/min/kg
[2]; -NADPH
  CLint scaled at 1 µM: 15.6 mL/min/kg

## Cn1nc(C(=O)Nc2n[nH]c(-c3c(F)cccc3F)n2)cc1C1CC1 [Compound 12]
[1]
  loss of compound over time in buffer only: little loss of compound over time
[2]
  Estimated % Contribution to Metabolism Human CYPs/FMOs: 4%
  Estimated % Contribution to Metabolism Human Esterases: 96%
[2]; +NADPH
  CLint scaled at 1 µM: 642 mL/min/kg
[2]; -NADPH
  CLint scaled at 1 µM: 352 mL/min/kg

## O=C(Nc1nc[nH]n1)c1nn(-c2ccccc2)c2c1CCC2 [Compound 17]
[1]
  loss of compound over time in buffer only: little loss of compound over time
[2]
  Estimated % Contribution to Metabolism Human CYPs/FMOs: 39%
  Estimated % Contribution to Metabolism Human Esterases: 61%
[2]; +NADPH
  CLint scaled at 1 µM: 26.8 mL/min/kg
[2]; -NADPH
  CLint scaled at 1 µM: 12.4 mL/min/kg
